Laboratory results from patent publication US12209081B2 (Katholieke Universiteit Leuven, priority 2020, dated 2025).

Biological target: mouse TRPM3α2 (mTRPM3) ion channel (Mus musculus (Mouse), UniProt J9SQF3)
Assay: TRPM3 ion channel driven Ca2+ uptake, Fluo-4 AM assay, mTRPM3alpha2 overexpressing flip-in HEK293 cells stimulated with pregnenolone sulfate
Type: cell-based
Summary of the method: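 Read-out is Ca2+ influx via Fluo-4 AM fluorescence at 485/535 nm, taken right after seeding ~2000 cells/well onto compound with 50 μM PS. Inhibition computed from RFU between vehicle-stimulated and positive-control-inhibitor wells; cells were mTRPM3α2-overexpressing flip-in HEK293.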

[1] = PS (50 μM) stimulated, cpds. 500-599
[2] = PS (50 μM) stimulated, cpd 001-199
[3] = PS (50 μM) stimulated, cpds. 608-666
[4] = PS (50 μM) stimulated, cpds. 400-499
[5] = PS (50 μM) stimulated, cpds. 667-751

Chain of mouse TRPM3α2 (mTRPM3) ion channel (J9SQF3 other isoform, or with tags, fused parts or gaps): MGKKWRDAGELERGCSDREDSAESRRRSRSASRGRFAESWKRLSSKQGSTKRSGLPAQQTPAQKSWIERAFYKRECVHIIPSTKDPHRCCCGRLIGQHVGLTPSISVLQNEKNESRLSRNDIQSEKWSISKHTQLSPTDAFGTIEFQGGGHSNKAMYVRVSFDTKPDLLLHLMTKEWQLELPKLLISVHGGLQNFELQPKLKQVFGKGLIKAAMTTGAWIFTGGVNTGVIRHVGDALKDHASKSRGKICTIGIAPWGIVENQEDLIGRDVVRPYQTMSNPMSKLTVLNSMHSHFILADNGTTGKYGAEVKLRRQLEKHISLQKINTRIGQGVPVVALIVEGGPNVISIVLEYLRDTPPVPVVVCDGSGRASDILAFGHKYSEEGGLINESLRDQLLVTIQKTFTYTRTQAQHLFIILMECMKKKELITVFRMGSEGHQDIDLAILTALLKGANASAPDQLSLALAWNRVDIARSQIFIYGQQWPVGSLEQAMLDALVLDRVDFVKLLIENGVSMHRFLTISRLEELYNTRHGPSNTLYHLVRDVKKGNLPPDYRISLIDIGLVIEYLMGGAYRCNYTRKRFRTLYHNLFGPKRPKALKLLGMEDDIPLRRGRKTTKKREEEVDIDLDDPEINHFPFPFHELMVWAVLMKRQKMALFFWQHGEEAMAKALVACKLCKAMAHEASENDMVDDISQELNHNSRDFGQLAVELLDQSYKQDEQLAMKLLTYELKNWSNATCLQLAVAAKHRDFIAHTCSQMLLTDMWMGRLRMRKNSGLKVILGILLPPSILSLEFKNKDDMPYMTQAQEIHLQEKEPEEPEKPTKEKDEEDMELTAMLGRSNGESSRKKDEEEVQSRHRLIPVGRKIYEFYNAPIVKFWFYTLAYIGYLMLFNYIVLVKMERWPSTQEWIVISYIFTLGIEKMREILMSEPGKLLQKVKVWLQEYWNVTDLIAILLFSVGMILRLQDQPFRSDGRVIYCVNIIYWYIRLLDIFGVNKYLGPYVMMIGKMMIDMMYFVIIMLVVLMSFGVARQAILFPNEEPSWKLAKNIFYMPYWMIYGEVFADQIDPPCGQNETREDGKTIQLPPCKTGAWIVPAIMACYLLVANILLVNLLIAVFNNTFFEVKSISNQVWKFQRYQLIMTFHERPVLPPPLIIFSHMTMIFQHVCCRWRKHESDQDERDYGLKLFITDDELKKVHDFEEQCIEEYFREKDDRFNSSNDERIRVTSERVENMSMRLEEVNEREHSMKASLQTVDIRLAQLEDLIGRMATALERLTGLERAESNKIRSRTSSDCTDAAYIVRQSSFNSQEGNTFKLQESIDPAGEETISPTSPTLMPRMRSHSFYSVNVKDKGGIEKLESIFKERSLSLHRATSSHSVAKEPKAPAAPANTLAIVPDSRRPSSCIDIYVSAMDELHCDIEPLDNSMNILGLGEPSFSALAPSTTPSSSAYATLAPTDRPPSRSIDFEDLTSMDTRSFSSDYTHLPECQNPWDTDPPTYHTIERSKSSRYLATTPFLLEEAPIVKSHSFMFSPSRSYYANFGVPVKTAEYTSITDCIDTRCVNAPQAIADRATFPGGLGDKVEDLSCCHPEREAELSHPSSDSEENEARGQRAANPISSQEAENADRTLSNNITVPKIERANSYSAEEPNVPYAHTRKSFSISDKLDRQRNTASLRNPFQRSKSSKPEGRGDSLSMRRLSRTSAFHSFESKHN

Cc1oc2ccc(OCc3c(F)cnn3C)cc2c1C(=O)N[C@H](C(N)=O)[C@@H](C)O [compound 383, N-((2S,3R)-1-amino-3-hydroxy-1-oxobutan-2-yl)-5-((4-fluoro-1-methyl-1H-pyrazol-5-yl)methoxy)-2-methylbenzofuran-3-carboxamide]
IC50 (PS 50 μM, cpds 300-399): < 1 µM

Cc1ncc(COc2ccc3oc(C)c(C(=O)NC4CCNCC4(F)F)c3c2)s1 (single isomer, unassigned) [cpd 549-En 2]
IC50 [1]: 1 to 20 µM

Cc1oc2ccc(OCc3cnnn3C)cc2c1C(=O)NC1CCNCC1(F)F (single isomer, unassigned) [cpd 541-En 2]
IC50 [1]: > 20 µM

Cc1cc2oc(C)c(C(=O)NC3CCNCC3(F)F)c2cc1OCc1cccnc1C(F)(F)F (single isomer, unassigned) [179-En 2, N-(3,3-difluoropiperidin-4-yl)-2,6-dimethyl-5-((2-(trifluoromethyl)pyridin-3-yl)methoxy)benzo-furan-3-carboxamide]
IC50 [2]: > 20 µM

Cc1oc2ccc(OCc3c[nH]nc3C(F)(F)F)cc2c1C(=O)N[C@@H](CO)C(N)=O [compound 286, (S)-N-(1-amino-3-hydroxy-1-oxopropan-2-yl)-2-methyl-5-((3-(trifluoromethyl)-1H-pyrazol-4-yl)methoxy)benzofuran-3-carboxamide]
IC50 (PS 50 μM, cpds 200-299): < 1 µM

CNC(=O)CNC(=O)c1c(C)oc2ccc(OCc3scnc3C)cc12 [compound 321, 2-methyl-N-(2-(methylamino)-2-oxoethyl)-5-((4-methylthiazol-5-yl)methoxy)benzofuran-3-carboxamide]
IC50 (PS 50 μM, cpds 300-399): < 1 µM

Cc1ncsc1COc1ccc2oc(C)c(C(=O)NC3CNCCC3(F)F)c2c1 (single isomer, unassigned) [cpd 103-En 1]
IC50 [2]: < 1 µM

Cc1oc2ccc(OCc3cccnc3C(F)(F)F)cc2c1C(=O)NC1(CN(C)C)CCC1 [compound 140, N-(1-((dimethylamino)methyl)cyclobutyl)-2-methyl-5-((2-(trifluoromethyl)pyridin-3-yl)methoxy) -benzofuran-3-carboxamide]
IC50 [2]: < 1 µM

Cc1oc2ccc(OCc3cccnc3C(F)(F)F)cc2c1C(=O)NC1CC2(COC2)C1 [compound 167, 2-methyl-N-(2-oxaspiro[3.3]heptan-6-yl)-5-((2-(trifluoromethyl)pyridin-3-yl)methoxy)benzofuran-3-carboxamide]
IC50 [2]: < 1 µM

Cc1nc(C(F)(F)F)c(COc2ccc3oc(C)c(C(=O)N[C@@H](CO)C(N)=O)c3c2)s1 [compound 282, (S)-N-(1-amino-3-hydroxy-1-oxopropan-2-yl)-2-methyl-5-((2-methyl-4-(trifluoromethyl)thiazol-5-yl)methoxy)benzofuran-3-carboxamide]
IC50 (PS 50 μM, cpds 200-299): < 1 µM

Cc1ncsc1COc1ccc2oc(C)c(C(=O)NC(C)(C)CC(N)=O)c2c1 [compound 649, N-(4-amino-2-methyl-4-oxobutan-2-yl)-2-methyl-5-((4-methylthiazol-5-yl)methoxy)benzofuran-3-carboxamide]
IC50 [3]: < 1 µM

Cc1ncc(COc2ccc3oc(C)c(C(=O)NC(Cn4cncn4)C(N)=O)c3c2)s1 (single isomer, unassigned) [432-En 2, N-(1-amino-1-oxo-3-(1H-1,2,4-triazol-1-yl)propan-2-yl)-2-methyl-5-((2-methylthiazol-5-yl)methoxy)benzofuran-3-carboxamide]
IC50 [4]: < 1 µM

Cc1oc2ccc(OCc3ccnn3CC(F)(F)F)cc2c1C(=O)N[C@@H](CO)C(N)=O [compound 688, (S)-N-(1-Amino-3-hydroxy-1-oxopropan-2-yl)-2-methyl-5-((1-(2,2,2-trifluoroethyl)-1H-pyrazol-5-yl)methoxy)benzofuran-3-carboxamide]
IC50 [5]: < 1 µM

NC(=O)[C@H](CO)NC(=O)c1c(C2CC2)oc2ccc(OCc3ccccn3)cc12 [compound 747, (S)-N-(1-Amino-3-hydroxy-1-oxopropan-2-yl)-2-cyclopropyl-5-(pyridin-2-ylmethoxy)benzofuran-3-carboxamide]
IC50 [5]: < 1 µM

Cc1oc2ccc(OCc3cccnc3C(F)(F)F)cc2c1C(=O)NC1(CO)CCOC1 (single isomer, unassigned) [cpd 135-En 1]
IC50 [2]: < 1 µM

Cc1ncsc1COc1ccc2oc(C)c(C(=O)NCC3(C#N)CC3)c2c1 [compound 371, N-((1-cyanocyclopropyl)methyl)-2-methyl-5-((4-methylthiazol-5-yl)methoxy)benzofuran-3-carboxamide]
IC50 (PS 50 μM, cpds 300-399): < 1 µM

Cc1oc2ccc(OCc3nccn3C)cc2c1C(=O)NC1CNCCC1(F)F (single isomer, unassigned) [cpd 635-En 1]
IC50 [3]: < 1 µM

Cc1ncc(COc2ccc3oc(C)c(C(=O)NCC(C)(F)F)c3c2)s1 [compound 499, N-(2,2-difluoropropyl)-2-methyl-5-((2-methylthiazol-5-yl)methoxy)benzofuran-3-carboxamide]
IC50 [4]: < 1 µM

Cc1oc2ccc(OCc3nccn3C)cc2c1C(=O)NC1(CO)CCOCC1 [compound 204, N-(4-(hydroxymethyl)tetrahydro-2H-pyran-4-yl)-2-methyl-5-((1-methyl-1H-imidazol-2-yl) -methoxy)benzofuran-3-carboxamide]
IC50 (PS 50 μM, cpds 200-299): < 1 µM

Cc1oc2ccc(OCc3nccn3C)cc2c1C(=O)NC(C)(C)CO [compound 481, N-(1-hydroxy-2-methylpropan-2-yl)-2-methyl-5-((1-methyl-1H-imidazol-2-yl)methoxy)benzofuran-3-carboxamide]
IC50 [4]: < 1 µM

Cc1oc2ccc(OCc3cccnc3Cl)cc2c1C(=O)NC1CCNCC1(F)F (stereo not drawn) [compound 067, 5-((2-chloropyridin-3-yl)methoxy)-N-(3,3-difluoropiperidin-4-yl)-2-methylbenzofuran-3-carboxamide]
IC50 [2]: < 1 µM

Cc1ccc(COc2ccc3oc(C)c(C(=O)N[C@@H](CO)C(N)=O)c3c2)cn1 [compound 291, (S)-N-(1-amino-3-hydroxy-1-oxopropan-2-yl)-2-methyl-5-((6-methylpyridin-3-yl)methoxy)benzofuran-3-carboxamide]
IC50 (PS 50 μM, cpds 200-299): < 1 µM

Cc1oc2ccc(OCC3CCN(C(=O)OC(C)(C)C)C3)cc2c1C(=O)O (stereo not drawn) [compound 019, 5-((1-(tert-butoxycarbonyl)pyrrolidin-3-yl)methoxy)-2-methylbenzofuran-3-carboxylic acid]
IC50 [2]: > 20 µM

Cc1ncsc1COc1ccc2oc(C)c(C(=O)NCC(C)(C)CO)c2c1 [compound 602, N-(3-hydroxy-2,2-dimethylpropyl)-2-methyl-5-((4-methylthiazol-5-yl)methoxy)benzofuran-3-carboxamide]
IC50 [3]: < 1 µM

Cc1oc2ccc(OCc3ccccn3)cc2c1C(=O)NC(C)(C)C(N)=O [compound 442, N-(1-amino-2-methyl-1-oxopropan-2-yl)-2-methyl-5-(pyridin-2-ylmethoxy)benzofuran-3-carboxamide]
IC50 [4]: < 1 µM

COc1ncccc1COc1ccc2oc(C)c(C(=O)N[C@H](C)CO)c2c1 [compound 497, (R)-N-(1-hydroxypropan-2-yl)-5-((2-methoxypyridin-3-yl)methoxy)-2-methylbenzofuran-3-carboxamide]
IC50 [4]: < 1 µM

Cc1oc2ccc(OCc3cccnc3O)cc2c1C(=O)NC1(C(N)=O)COC1 [compound 585, N-(3-carbamoyloxetan-3-yl)-5-((2-hydroxypyridin-3-yl)methoxy)-2-methylbenzofuran-3-carboxamide]
IC50 [1]: < 1 µM

Cc1oc2ccc(OCc3cccnc3C(F)(F)F)cc2c1C(=O)NC1(CNCC(F)(F)F)CCC1 [compound 153, 2-methyl-N-(1-(((2,2,2-trifluoroethyl)amino)methyl)cyclobutyl)-5-((2-(trifluoromethyl)pyridin-3-yl)methoxy)benzofuran-3-carboxamide]
IC50 [2]: < 1 µM

Cc1ncc(COc2ccc3oc(C)c(C(=O)NC(CO)c4nc5ccccc5[nH]4)c3c2)s1 (single isomer, unassigned) [cpd 401-En 2]
IC50 [4]: 1 to 20 µM

Cc1oc2ccc(OCc3cccnc3C(F)(F)F)cc2c1C(=O)NC1COCC1O (single isomer, unassigned) [147-Dia 1-En 1, N-(4-hydroxytetrahydrofuran-3-yl)-2-methyl-5-((2-(trifluoromethyl)pyridin-3-yl)methoxy) -benzofuran-3-carboxamide]
IC50 [2]: < 1 µM

Cc1ncsc1COc1ccc2oc(C)c(C(=O)NC3(C(N)=O)CC(F)(F)C3)c2c1 [compound 470, N-(1-carbamoyl-3,3-difluorocyclobutyl)-2-methyl-5-((4-methylthiazol-5-yl)methoxy)benzofuran-3-carboxamide]
IC50 [4]: < 1 µM

Cc1oc2ccc(OCc3cccnc3C(F)F)cc2c1C(=O)NC1(CO)CCOCC1 [compound 343, 5-((2-(difluoromethyl)pyridin-3-yl)methoxy)-N-(4-(hydroxymethyl)tetrahydro-2H-pyran-4-yl)-2-methylbenzofuran-3-carboxamide]
IC50 (PS 50 μM, cpds 300-399): < 1 µM

Cc1oc2ccc(OCc3cccnc3C(F)(F)F)c(F)c2c1C(=O)NC1CCNCC1(F)F (single isomer, unassigned) [cpd 112-En 1, N-(3,3-difluoropiperidin-4-yl)-4-fluoro-2-methyl-5-((2-(trifluoromethyl)pyridin-3-yl)methoxy) -benzofuran-3-carboxamide]
IC50 [2]: < 1 µM

Cc1oc2ccc(OCC3(C)COC3)cc2c1C(=O)NC1CCNCC1(F)F (single isomer, unassigned) [cpd 550-En 1]
IC50 [1]: 1 to 20 µM

Cc1oc2ccc(OCc3ccnn3CC(F)F)cc2c1C(=O)NC1(CO)CCOCC1 [compound 334, 5-((1-(2,2-difluoroethyl)-1H-pyrazol-5-yl)methoxy)-N-(4-(hydroxymethyl)tetrahydro-2H-pyran-4-yl)-2-methylbenzofuran-3-carboxamide]
IC50 (PS 50 μM, cpds 300-399): < 1 µM

Cc1oc2ccc(OCc3c(F)cnn3C)cc2c1C(=O)NC1(CO)CCOCC1 [compound 357, 5-((4-fluoro-1-methyl-1H-pyrazol-5-yl)methoxy)-N-(4-(hydroxymethyl)tetrahydro-2H-pyran-4-yl)-2-methylbenzofuran-3-carboxamide]
IC50 (PS 50 μM, cpds 300-399): < 1 µM
